This test deals with B16-SIY cells. The test can be described thus: Unaffected fraction (synergy) analysis of tumor growth inhibition of combination therapies. The format is in vivo, C57BL/6 mice. The following applies: for Predicted TGI: expected for purely additive effect. The procedure: Treatment was initiated on day 4 post tumor inoculation with the following regimens for each drug. αCTLA-4 antibody (clone UC10-4F10-11, Bio-X-Cell) was given i.p. on day 4, 7 and 10 at a dose of 100 μg/mouse. αPD-L1 antibody (clone 10F.9G2, Bio-X-Cell) was given i.p. (100 μg/mouse) every other day starting on day 4 ending on day 16 post tumor inoculation. IDOi (INCB23843, Incyte Corporation) was dissolved in 0.5% methylcellulose and administered at 300 mg/kg po QD on a 5 days on/2 days off schedule starting on day 4. In the case of functional experiments with an earlier endpoint, treatment regimens were carried out as described until the day of T cell analysis. A comparison between IDOi and IDOc (INCB24360, Incyte Corporation) was perfomed according to the treatment regime described above. Tumor outgrowth was followed starting day 7 onwards and is depicted in combination with anti-CTLA4 (FIG. 18A) or anti-PD-L1 (FIG. 18B). N=5 mice per group, and a two-way Anova test was used to determine significance between the groups.
Treatment was administered in the same fashion as described for FIG. 9, with the exception that IDOi (INCB23843) was replaced by IDOc (INCB24360) in the indicated groups.
Synergy analysis was performed with day 15 data and with day 23 data. Actual tumor growth inhibition (TGI) is the experimental TGI seen in this experiment for the combinations, and predicted TGI is the TGI that would have been expected for a purely additive combination effect from the performance of the individual agents in this experiment. Actual TGIs higher than predicted TGIs reflect better than additive (synergistic) data.

The mark [1] stands for this setting: Day 15 (end of dosing), in combination with anti CTLA4.
Setting [2] is: Day 15 (end of dosing), in combination with antiPDL1.
The mark [3] stands for this setting: Day 23 (last day of vehicles), in combination with anti CTLA4.
[4] abbreviates: Day 23 (last day of vehicles), in combination with antiPDL1.

For the molecule `NS(=O)(=O)NCCNc1nonc1/C(=N/O)Nc1ccc(F)c(Br)c1` [IDOc], the “Actual TGI” value is, setting by setting: under setting [1], 74%; under setting [2], 81%; under setting [3], 93%; under setting [4], 82%. The “Predicted TGI” value under setting [1] was 66%, the “Predicted TGI” value under setting [2] is on record as 24%, the “Predicted TGI” value under setting [3] is on record as 65% and the “Predicted TGI” value under setting [4] is 35%.

(Values after patent publication US10967060B2, “Synergistic combination of immunologic inhibitors for the treatment of cancer” (The University of Chicago, priority 2012, dated 2021).)
